Patent publication US8580794B2 (AbbVie Inc., priority 2009, dated 2013)

Molecular target: GST-Bc1-2 (Homo sapiens, UniProt P10415)
Assay: Time Resolved-Fluorescence Resonance Energy Transfer (TR-FRET) Bcl-2 binding assay with F-Bak peptide probe
Conditions: GST-Bcl-2 1 nM, F-Bak probe 100 nM, Tb-anti-GST 1 nM; '<' = below limit of detection; read-out: TR-FRET Bcl-2 Binding Ki

Sequence of GST-Bc1-2 (P10415 whole entry): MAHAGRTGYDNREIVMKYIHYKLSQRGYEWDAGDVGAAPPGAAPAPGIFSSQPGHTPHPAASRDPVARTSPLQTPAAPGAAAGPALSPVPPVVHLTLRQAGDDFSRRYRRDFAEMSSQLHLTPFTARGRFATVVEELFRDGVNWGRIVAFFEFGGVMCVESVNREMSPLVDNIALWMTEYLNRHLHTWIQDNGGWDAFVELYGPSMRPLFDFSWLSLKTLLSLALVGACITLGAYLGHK

Structure (SMILES) | Ki
CC1(C)CCC(CN2CCN(c3ccc(C(=O)NS(=O)(=O)c4ccc(NCCCN(CC(F)(F)F)C5CC5)c([N+](=O)[O-])c4)c(Oc4cnc5[nH]ccc5c4)c3)CC2)=C(c2ccc(Cl)cc2)C1 [Example 308, 4-(4-{[2-(4-chlorophenyl)-4,4-dimethylcyclohex-1-en-1-yl]methyl}piperazin-1-yl)-N-{[4-({3-[cyclopropyl(2,2,2-trifluoroethyl)amino]propyl}amino)-3-nitrophenyl]sulfonyl}-2-(1H-pyrrolo[2,3-b]pyridin-5-yloxy)benzamide] | 0.141 nM
CC1(C)CCC(CN2CCN(c3ccc(C(=O)NS(=O)(=O)c4ccc(OCC5CCN(C6COC6)CC5)c(Cl)c4)c(Oc4cnc5[nH]ccc5c4)c3)CC2)=C(c2ccc(Cl)cc2)C1 [Example 309, N-[(3-chloro-4-{[1-(oxetan-3-yl)piperidin-4-yl]methoxy}phenyl)sulfonyl]-4-(4-{[2-(4-chlorophenyl)-4,4-dimethylcyclohex-1-en-1-yl]methyl}piperazin-1-yl)-2-(1H-pyrrolo[2,3-b]pyridin-5-yloxy)benzamide] | 0.023 nM
CC1(C)CCC(CN2CCN(c3ccc(C(=O)NS(=O)(=O)c4cc(F)c(OCC5(F)CCOCC5)c(F)c4)c(Oc4cnc5[nH]ccc5c4)c3)CC2)=C(c2ccc(Cl)cc2)C1 [Example 310, 4-(4-{[2-(4-chlorophenyl)-4,4-dimethylcyclohex-1-en-1-yl]methyl}piperazin-1-yl)-N-({3,5-difluoro-4-[(4-fluorotetrahydro-2H-pyran-4-yl)methoxy]phenyl}sulfonyl)-2-(1H-pyrrolo[2,3-b]pyridin-5-yloxy)benzamide] | 0.165 nM
CC1(C)CCC(CN2CCN(c3ccc(C(=O)NS(=O)(=O)c4ccc(NCCCN(C5CC5)C5COC5)c([N+](=O)[O-])c4)c(Oc4cnc5[nH]ccc5c4)c3)CC2)=C(c2ccc(Cl)cc2)C1 [Example 311, 4-(4-{[2-(4-chlorophenyl)-4,4-dimethylcyclohex-1-en-1-yl]methyl}piperazin-1-yl)-N-{[4-({3-[cyclopropyl(oxetan-3-yl)amino]propyl}amino)-3-nitrophenyl]sulfonyl}-2-(1H-pyrrolo[2,3-b]pyridin-5-yloxy)benzamide] | < 0.01 nM
CN1CCC[C@H]1C(=O)N1CCC(COc2ccc(S(=O)(=O)NC(=O)c3ccc(N4CCN(CC5=C(c6ccc(Cl)cc6)CC(C)(C)CC5)CC4)cc3Oc3cnc4[nH]ccc4c3)cc2Cl)CC1 [Example 312, N-[(3-chloro-4-{[1-(1-methyl-L-prolyl)piperidin-4-yl]methoxy}phenyl)sulfonyl]-4-(4-{[2-(4-chlorophenyl)-4,4-dimethylcyclohex-1-en-1-yl]methyl}piperazin-1-yl)-2-(1H-pyrrolo[2,3-b]pyridin-5-yloxy)benzamide] | < 0.01 nM
CC1(C)CCC(CN2CCN(c3ccc(C(=O)NS(=O)(=O)c4cc(F)c(F)c(OCC5(F)CCOCC5)c4)c(Oc4cnc5[nH]ccc5c4)c3)CC2)=C(c2ccc(Cl)cc2)C1 [Example 313, 4-(4-{[2-(4-chlorophenyl)-4,4-dimethylcyclohex-1-en-1-yl]methyl}piperazin-1-yl)-N-({3,4-difluoro-5-[(4-fluorotetrahydro-2H-pyran-4-yl)methoxy]phenyl}sulfonyl)-2-(1H-pyrrolo[2,3-b]pyridin-5-yloxy)benzamide] | 1.1 nM
CC1(C)CCC(CC2CCN(c3ccc(C(=O)NS(=O)(=O)c4ccc(NCC5CCOCC5)c([N+](=O)[O-])c4)c(Oc4cnc5[nH]ccc5c4)c3)CC2)=C(c2ccc(Cl)cc2)C1 [Example 315, 4-(4-{[2-(4-chlorophenyl)-4,4-dimethylcyclohex-1-en-1-yl]methyl}piperidin-1-yl)-N-({3-nitro-4-[(tetrahydro-2H-pyran-4-ylmethyl)amino]phenyl}sulfonyl)-2-(1H-pyrrolo[2,3-b]pyridin-5-yloxy)benzamide] | 0.052 nM
CC1(C)CCC(CC2CCN(c3ccc(C(=O)NS(=O)(=O)c4ccc(OCC5CCOCC5)c(Cl)c4)c(Oc4cnc5[nH]ccc5c4)c3)CC2)=C(c2ccc(Cl)cc2)C1 [Example 316, 4-(4-{[2-(4-chlorophenyl)-4,4-dimethylcyclohex-1-en-1-yl]methyl}piperidin-1-yl)-N-{[3-chloro-4-(tetrahydro-2H-pyran-4-ylmethoxy)phenyl]sulfonyl}-2-(1H-pyrrolo[2,3-b]pyridin-5-yloxy)benzamide] | 0.601 nM
COC(=O)N1CCOC(CNc2ccc(S(=O)(=O)NC(=O)c3ccc(N4CCN(CC5=C(c6ccc(Cl)cc6)CC(C)(C)CC5)CC4)cc3Oc3cnc4[nH]ccc4c3)cc2[N+](=O)[O-])C1 (stereo not shown) [Example 317, methyl 2-{[(4-{[4-(4-{[2-(4-chlorophenyl)-4,4-dimethylcyclohex-1-en-1-yl]methyl}piperazin-1-yl)-2-(1H-pyrrolo[2,3-b]pyridin-5-yloxy)benzoyl]sulfamoyl}-2-nitrophenyl)amino]methyl}morpholine-4-carboxylate] | < 0.01 nM
CCN(C)C(=O)N1CCOC(CNc2ccc(S(=O)(=O)NC(=O)c3ccc(N4CCN(CC5=C(c6ccc(Cl)cc6)CC(C)(C)CC5)CC4)cc3Oc3cnc4[nH]ccc4c3)cc2[N+](=O)[O-])C1 (stereo not shown) [Example 318, 2-{[(4-{[4-(4-{[2-(4-chlorophenyl)-4,4-dimethylcyclohex-1-en-1-yl]methyl}piperazin-1-yl)-2-(1H-pyrrolo[2,3-b]pyridin-5-yloxy)benzoyl]sulfamoyl}-2-nitrophenyl)amino]methyl}-N-ethyl-N-methylmorpholine-4-carboxamide] | < 0.01 nM
CC1(C)CCC(CN2CCN(c3ccc(C(=O)NS(=O)(=O)c4ccc(NCC5CN(S(C)(=O)=O)CCO5)c([N+](=O)[O-])c4)c(Oc4cnc5[nH]ccc5c4)c3)CC2)=C(c2ccc(Cl)cc2)C1 (stereo not shown) [Example 319, 4-(4-{[2-(4-chlorophenyl)-4,4-dimethylcyclohex-1-en-1-yl]methyl}piperazin-1-yl)-N-{[4-({[4-(methylsulfonyl)morpholin-2-yl]methyl}amino)-3-nitrophenyl]sulfonyl}-2-(1H-pyrrolo[2,3-b]pyridin-5-yloxy)benzamide] | < 0.01 nM
CC1(C)CCC(CN2CCN(c3ccc(C(=O)NS(=O)(=O)c4ccc(NCCCN(C5CCC5)C5CC5)c([N+](=O)[O-])c4)c(Oc4cnc5[nH]ccc5c4)c3)CC2)=C(c2ccc(Cl)cc2)C1 [Example 320, 4-(4-{[2-(4-chlorophenyl)-4,4-dimethylcyclohex-1-en-1-yl]methyl}piperazin-1-yl)-N-{[4-({3-[cyclobutyl(cyclopropyl)amino]propyl}amino)-3-nitrophenyl]sulfonyl}-2-(1H-pyrrolo[2,3-b]pyridin-5-yloxy)benzamide] | < 0.01 nM
O=C(NS(=O)(=O)c1ccc(NCC2CCOCC2)c([N+](=O)[O-])c1)c1ccc(N2CCN(CC3=C(c4ccc(Cl)cc4)CCC(F)(F)C3)CC2)cc1Oc1cnc2[nH]ccc2c1 [Example 321, 4-(4-{[2-(4-chlorophenyl)-5,5-difluorocyclohex-1-en-1-yl]methyl}piperazin-1-yl)-N-({3-nitro-4-[(tetrahydro-2H-pyran-4-ylmethyl)amino]phenyl}sulfonyl)-2-(1H-pyrrolo[2,3-b]pyridin-5-yloxy)benzamide] | < 0.01 nM
CC1(C)CCC(CN2CCN(c3ccc(C(=O)NS(=O)(=O)c4ccc(OCC5(F)CCN(C6COC6)CC5)c(Cl)c4)c(Oc4cnc5[nH]ccc5c4)c3)CC2)=C(c2ccc(Cl)cc2)C1 [Example 322, N-[(3-chloro-4-{[4-fluoro-1-(oxetan-3-yl)piperidin-4-yl]methoxy}phenyl)sulfonyl]-4-(4-{[2-(4-chlorophenyl)-4,4-dimethylcyclohex-1-en-1-yl]methyl}piperazin-1-yl)-2-(1H-pyrrolo[2,3-b]pyridin-5-yloxy)benzamide] | < 0.01 nM
CC1(C)CCC(CN2CCN(c3ccc(C(=O)NS(=O)(=O)c4ccc(OCC5CCOC5)c(Cl)c4)c(Oc4cnc5[nH]ccc5c4)c3)CC2)=C(c2ccc(Cl)cc2)C1 (stereo not shown) [Example 323, 4-(4-{[2-(4-chlorophenyl)-4,4-dimethylcyclohex-1-en-1-yl]methyl}piperazin-1-yl)-N-{[3-chloro-4-(tetrahydrofuran-3-ylmethoxy)phenyl]sulfonyl}-2-(1H-pyrrolo[2,3-b]pyridin-5-yloxy)benzamide] | 0.104 nM
O=C(NS(=O)(=O)c1ccc(NC[C@H]2CC[C@H](O)CC2)c([N+](=O)[O-])c1)c1ccc(N2CCN(CC3=C(c4ccc(Cl)cc4)CCC(F)(F)C3)CC2)cc1Oc1cnc2[nH]ccc2c1 [Example 324, 4-(4-{[2-(4-chlorophenyl)-5,5-difluorocyclohex-1-en-1-yl]methyl}piperazin-1-yl)-N-[(4-{[(trans-4-hydroxycyclohexyl)methyl]amino}-3-nitrophenyl)sulfonyl]-2-(1H-pyrrolo[2,3-b]pyridin-5-yloxy)benzamide] | < 0.01 nM
O=C(NS(=O)(=O)c1ccc(OCC2(F)CCOCC2)c(Cl)c1)c1ccc(N2CCN(CC3=C(c4ccc(Cl)cc4)CCC4(CCN(C5COC5)CC4)C3)CC2)cc1Oc1cnc2[nH]ccc2c1 [Example 325, N-({3-chloro-4-[(4-fluorotetrahydro-2H-pyran-4-yl)methoxy]phenyl}sulfonyl)-4-(4-{[9-(4-chlorophenyl)-3-(oxetan-3-yl)-3-azaspiro[5.5]undec-8-en-8-yl]methyl}piperazin-1-yl)-2-(1H-pyrrolo[2,3-b]pyridin-5-yloxy)benzamide] | < 0.01 nM
CC1(C)CCC(CN2CCN(c3ccc(C(=O)NS(=O)(=O)c4ccc(NC[C@@H]5CN(C6CC6)CCO5)c([N+](=O)[O-])c4)c(Oc4cnc5[nH]ccc5c4)c3)CC2)=C(c2ccc(Cl)cc2)C1 [Example 326, 4-(4-{[2-(4-chlorophenyl)-4,4-dimethylcyclohex-1-en-1-yl]methyl}piperazin-1-yl)-N-{[4-({[(2R)-4-cyclopropylmorpholin-2-yl]methyl}amino)-3-nitrophenyl]sulfonyl}-2-(1H-pyrrolo[2,3-b]pyridin-5-yloxy)benzamide] | < 0.01 nM
CC1(C)CCC(CN2CCN(c3ccc(C(=O)NS(=O)(=O)c4ccc(NC[C@H]5CN(C6CC6)CCO5)c([N+](=O)[O-])c4)c(Oc4cnc5[nH]ccc5c4)c3)CC2)=C(c2ccc(Cl)cc2)C1 [Example 327, 4-(4-{[2-(4-chlorophenyl)-4,4-dimethylcyclohex-1-en-1-yl]methyl}piperazin-1-yl)-N-{[4-({[(2S)-4-cyclopropylmorpholin-2-yl]methyl}amino)-3-nitrophenyl]sulfonyl}-2-(1H-pyrrolo[2,3-b]pyridin-5-yloxy)benzamide] | < 0.01 nM
